Data taken from ChEMBL document CHEMBL1201862, “PubChem BioAssay data set” (2004).
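Exposure lasted 48 hours, with cells grown in 96-well plates and compounds tested at five concentrations. Abbreviation: GI50, concentration required for 50% inhibition of growth.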 Activity calls are given as the source filed them. Rule as the data show it: active = GI50 up to about 1.1 µM and inactive = higher.

How the values were obtained:
Assay in all cases: NCI anticancer screen, dose series, 48 h
HCT-15 = test system: HCT-15
PC-3 = test system: PC-3
SK-MEL-2 = test system: SK-MEL-2
SF-539 = test system: SF-539
OVCAR-5 = test system: OVCAR-5
MDA-MB-435 = test system: MDA-MB-435
OVCAR-3 = test system: OVCAR-3
MDA-N = test system: MDA-N
ACHN = test system: ACHN
HCT-116 = test system: HCT-116
Malme-3M = test system: Malme-3M
RPMI-8226 = test system: RPMI-8226
RXF 393 = test system: RXF 393
OVCAR-8 = test system: OVCAR-8
DU-145 = test system: DU-145
IGROV-1 = test system: IGROV-1
SNB-19 = test system: SNB-19
TK-10 = test system: TK-10
K562 = test system: K562
HOP-92 = test system: HOP-92

| SMILES | GI50 (HCT-15) | GI50 (PC-3) | GI50 (SK-MEL-2) | GI50 (SF-539) | GI50 (OVCAR-5) | GI50 (MDA-MB-435) | GI50 (OVCAR-3) | GI50 (MDA-N) | GI50 (ACHN) | GI50 (HCT-116) | GI50 (Malme-3M) | GI50 (RPMI-8226) | GI50 (RXF 393) | GI50 (OVCAR-8) | GI50 (DU-145) | GI50 (IGROV-1) | GI50 (SNB-19) | GI50 (TK-10) | GI50 (K562) | GI50 (HOP-92) |
| --- | --- | --- | --- | --- | --- | --- | --- | --- | --- | --- | --- | --- | --- | --- | --- | --- | --- | --- | --- | --- |
| CC1(c2cccc(C(F)(F)F)c2)CC(c2cccc(C(F)(F)F)c2)=C(C#N)C(=C(C#N)C#N)N1 (configuration not stated) | 16.4 µM | 19.4 µM (inactive) | 19.6 µM (inactive) | 17.4 µM (inactive) | 18.2 µM (inactive) | 18.1 µM (inactive) | 11.9 µM (inactive) | 18 µM (inactive) | 17.2 µM (inactive) | 15.2 µM (inactive) | 17.1 µM (inactive) | 16.4 µM (inactive) | 16.8 µM (inactive) | 17.5 µM (inactive) | 17.2 µM (inactive) | 16.6 µM (inactive) | 19.4 µM (inactive) | 16.8 µM (inactive) | 15.2 µM (inactive) | 2.3 µM (inactive) |
| CCOC(=O)CC[C@@H](NC(=O)c1ccc(NCc2ccc3nc(OC)c(OC)nc3c2)cc1)C(=O)OCC | > 87.3 µM | 56.8 µM (inactive) | 18.1 µM (inactive) | 18.5 µM (inactive) | > 100 µM (inactive) | 31.4 µM (inactive) | 17.3 µM (inactive) | 30.1 µM (inactive) | 22.3 µM (inactive) | > 100 µM (inactive) | 19.5 µM (inactive) | > 94.8 µM (inactive) | 25.5 µM (inactive) | > 100 µM (inactive) | 58.2 µM (inactive) | 22.5 µM (inactive) | > 100 µM (inactive) | 60.5 µM (inactive) | 46.8 µM (inactive) | 11.4 µM (inactive) |
| Nc1nc(F)nc2c1ncn2C1OC(COP(=O)(O)O)C(O)C1O (configuration not stated) | 175 µM | 16.6 µM (inactive) | 31.4 µM (inactive) | 146 µM (inactive) | 41.9 µM (inactive) | 11.9 µM (inactive) | 119 µM (inactive) | 34 µM (inactive) | 32.1 µM (inactive) | 33.1 µM (inactive) | 23.3 µM (inactive) | 80.4 µM (inactive) | 51.4 µM (inactive) | 2.91 µM (inactive) | 9.57 µM (inactive) | 286 µM (inactive) | 25.1 µM (inactive) | 128 µM (inactive) | 111 µM (inactive) | 7.38 µM (inactive) |
| O=C1OC(CN2CCN(c3ccccc3)CC2)CN1C(=S)Nc1ccccc1 (configuration not stated) | > 100 µM | 84.7 µM (inactive) | 31.8 µM (inactive) | > 100 µM (inactive) | > 100 µM (inactive) | > 100 µM (inactive) | > 100 µM (inactive) | > 100 µM (inactive) | > 100 µM (inactive) | > 100 µM (inactive) | > 100 µM (inactive) | 92.5 µM (inactive) | > 100 µM (inactive) | > 100 µM (inactive) | > 100 µM (inactive) | > 100 µM (inactive) | > 100 µM (inactive) | > 100 µM (inactive) | 61.4 µM (inactive) | > 100 µM (inactive) |
| Clc1ccc(NCNC2Nc3ccccc3N2)cc1Cl | 31.1 µM | 50.1 µM (inactive) | 32 µM (inactive) | 48.5 µM (inactive) | > 100 µM (inactive) | 20.6 µM (inactive) | 29.3 µM (inactive) | 30.8 µM (inactive) | 26.6 µM (inactive) | 36.7 µM (inactive) | 92.9 µM (inactive) | 26.4 µM (inactive) | 30.8 µM (inactive) | 13.1 µM (inactive) | > 100 µM (inactive) | – | > 100 µM (inactive) | 55.6 µM (inactive) | 12.4 µM (inactive) | 48.4 µM (inactive) |
| CCN(CC)C(=O)C1=C(C)NC(C)=C(C(=O)N(CC)CC)C1 | > 100 µM | > 100 µM (inactive) | > 100 µM (inactive) | > 100 µM (inactive) | > 100 µM (inactive) | 81.1 µM (inactive) | > 100 µM (inactive) | > 100 µM (inactive) | > 100 µM (inactive) | > 100 µM (inactive) | > 100 µM (inactive) | > 100 µM (inactive) | > 100 µM (inactive) | – | > 100 µM (inactive) | > 100 µM (inactive) | > 100 µM (inactive) | > 100 µM (inactive) | 41.4 µM (inactive) | > 100 µM (inactive) |
| CN(C)CCNc1ccc2ncnc3c2c1C(=O)c1ccccc1-3 | 0.323 µM | 0.519 µM (active) | 1.76 µM (inactive) | 0.667 µM (active) | 0.488 µM (active) | 0.535 µM (active) | 0.556 µM (active) | 0.456 µM (active) | 0.281 µM (active) | 0.0676 µM (active) | 0.166 µM (active) | 0.263 µM (active) | 0.444 µM (active) | 0.466 µM (active) | 0.476 µM (active) | – | 1.02 µM (active) | 0.175 µM (active) | 0.221 µM (active) | 1.12 µM (active) |
